Some test systems named below: HOP-62 NSCLC; HT29 colon; MCF7 breast; NCI-H23 lung; NCI-H460 lung; NCI/ADR-RES ovarian; PC-3 prostate; RPMI-8226 leukemia; RXF 393 renal; SK-MEL-2 melanoma.
Holding throughout (experiment): growth of human tumour cells (NCI), 48 h

Here are results for 13 compounds from PubChem BioAssay (NCI).

Values joined by “and” are separate entries in the source; they are usually repeats but may differ in a detail not shown here. Identical values can stand only once.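 Test compounds were applied to cells in 96-well plates for 48 hours at 5 doses. Here, GI50 denotes the concentration required for 50% inhibition of growth. TGI denotes the concentration required for complete inhibition of growth.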

Take `CNNC(=NS(=O)(=O)c1cc(C#N)c(NNC)cc1S)NNC`: the TGI with HOP-62 NSCLC, with HT29 colon, in the assay with MCF7 breast, with NCI-H23 lung, in the assay with NCI-H460 lung and in the assay on NCI/ADR-RES ovarian was more than 10 µM throughout. In addition, the TGI in the assay with PC-3 prostate, in the assay on RPMI-8226 leukemia, with RXF 393 renal and with SK-MEL-2 melanoma was more than 10 µM throughout.

As to `CCOC(=O)c1cc2c(cc1Cl)SC(=Nc1ccccc1)N(S(=O)(=O)c1ccc(Br)s1)S2(=O)=O`, the GI50 in the assay with HOP-62 NSCLC is 23.3 µM; in the assay on HT29 colon, 31.2 µM; in the assay on MCF7 breast, 16.5 µM; with NCI-H23 lung, 18.3 µM; in the assay on NCI-H460 lung, 19.4 µM; in the assay with NCI/ADR-RES ovarian it was 17.5 µM. Moreover, the GI50 in the assay on PC-3 prostate is 14.5 µM; in the assay on RPMI-8226 leukemia, 12.1 µM; with RXF 393 renal it was 2.1 µM; in the assay on SK-MEL-2 melanoma it was 15.8 µM. In addition, the TGI in the assay with HOP-62 NSCLC is 44.2 µM; in the assay on HT29 colon, more than 100 µM; with MCF7 breast it was 45.8 µM; in the assay on NCI-H23 lung, 42.2 µM; in the assay on NCI-H460 lung, 51.1 µM; in the assay with NCI/ADR-RES ovarian, 37.6 µM. Further, the TGI with PC-3 prostate was determined as 32.1 µM; in the assay on RPMI-8226 leukemia, 41.9 µM; with RXF 393 renal it was 11.5 µM; in the assay with SK-MEL-2 melanoma, 43.3 µM.

For the compound `COc1ccc(/C=C(\C)[N+](=O)[O-])cc1OC`, the GI50 was 5.08 µM with HOP-62 NSCLC; 2.2 µM in the assay with HT29 colon; 1.35 µM in the assay on MCF7 breast; 2.6 µM with NCI-H23 lung; 2.54 µM in the assay with NCI-H460 lung; 3.55 µM in the assay on NCI/ADR-RES ovarian. For the same compound, the GI50 in the assay with PC-3 prostate is 2.75 µM; with RPMI-8226 leukemia, 2.3 µM; in the assay on RXF 393 renal it was 1.72 µM; with SK-MEL-2 melanoma, 1.98 µM. In addition, the TGI in the assay with HOP-62 NSCLC was 16.4 µM; with HT29 colon, 4.43 µM; in the assay with MCF7 breast, 3.25 µM; in the assay on NCI-H23 lung it was 7.13 µM; with NCI-H460 lung, 6.56 µM; in the assay with NCI/ADR-RES ovarian, 13.4 µM. Moreover, the TGI was found to be 7.07 µM with PC-3 prostate, 5.59 µM in the assay on RPMI-8226 leukemia, 3.18 µM in the assay with RXF 393 renal and 3.83 µM with SK-MEL-2 melanoma.

Consider `COc1ccc2c(c1)C(=O)c1c-2c(OCCN(C)C)nc2ccccc12`, for which the GI50 in the assay on HOP-62 NSCLC was 2.29 µM; in the assay with HT29 colon, 1.46 µM; in the assay with MCF7 breast, 1.76 µM; in the assay with NCI-H23 lung, 3.8 µM; in the assay with NCI-H460 lung, 1.15 µM; in the assay on NCI/ADR-RES ovarian it was 3.05 µM. The GI50 was 4.99 µM in the assay on PC-3 prostate, 2.85 µM with RPMI-8226 leukemia, 3.79 µM in the assay on RXF 393 renal and 12.2 µM in the assay on SK-MEL-2 melanoma. Besides, the TGI turned out to be 12.7 µM with HOP-62 NSCLC; 5.01 µM in the assay on HT29 colon; 10.9 µM with MCF7 breast; 16.7 µM with NCI-H23 lung; 4.33 µM in the assay on NCI-H460 lung; 14.5 µM in the assay with NCI/ADR-RES ovarian. Further, the TGI in the assay with PC-3 prostate was 21.4 µM; in the assay with RPMI-8226 leukemia it was 13.9 µM; with RXF 393 renal, 15.7 µM; in the assay on SK-MEL-2 melanoma, 25.7 µM.

Take `CC(CO)(Nc1ccc([N+](=O)[O-])cc1[N+](=O)[O-])C(=O)O` (stereo not given): the TGI in the assay with HOP-62 NSCLC was more than 100 µM; in the assay on HT29 colon, 30.4 µM; with MCF7 breast, 32.1 µM; in the assay with NCI-H23 lung, 62.4 µM; in the assay on NCI-H460 lung it was 28.8 µM; in the assay on NCI/ADR-RES ovarian it was more than 100 µM. Further, the TGI is more than 100 µM in the assay on PC-3 prostate, more than 100 µM with RPMI-8226 leukemia, 24.6 µM in the assay with RXF 393 renal and 55.4 µM in the assay on SK-MEL-2 melanoma.

With `FC(F)(F)c1cccc(-c2nn3ncccc3c2-c2ccnc(Nc3ccc4c(c3)OCCO4)n2)c1`, the GI50 is more than 25 µM with HOP-62 NSCLC; 7.32 µM in the assay with HT29 colon; 14.4 µM in the assay with MCF7 breast; 14.8 µM in the assay on NCI-H23 lung; 11.1 µM in the assay with NCI-H460 lung; 8.96 µM with NCI/ADR-RES ovarian. Also, the GI50 was 10.5 µM in the assay with PC-3 prostate, 7.88 µM in the assay on RPMI-8226 leukemia, 6.83 µM with RXF 393 renal and more than 25 µM in the assay on SK-MEL-2 melanoma. Besides, the TGI in the assay with HOP-62 NSCLC, with HT29 colon, with MCF7 breast, in the assay with NCI-H23 lung, with NCI-H460 lung and with NCI/ADR-RES ovarian was more than 25 µM throughout. For the same compound, the TGI in the assay with PC-3 prostate, with RPMI-8226 leukemia, with RXF 393 renal and with SK-MEL-2 melanoma was more than 25 µM throughout.

As for `CSc1ccc(C2=NN(C(C)=O)C(c3ccc(-c4ccc(Cl)cc4)o3)C2)cc1` (stereo not given), the GI50 in the assay with HOP-62 NSCLC was 42.4 µM; in the assay with HT29 colon, 30.4 µM; with MCF7 breast it was 39.9 µM; in the assay on NCI-H23 lung, 86.1 µM; with NCI-H460 lung, 40 µM; in the assay on NCI/ADR-RES ovarian it was 41.4 µM. In addition, the GI50 in the assay with PC-3 prostate was 20.1 µM; in the assay with RPMI-8226 leukemia it was 23.8 µM; in the assay on RXF 393 renal, 44.6 µM; with SK-MEL-2 melanoma, 28.9 µM. For the same compound, the TGI in the assay with HOP-62 NSCLC, in the assay on HT29 colon, with MCF7 breast, in the assay with NCI-H23 lung, with NCI-H460 lung and with NCI/ADR-RES ovarian was more than 100 µM each time. The TGI in the assay with PC-3 prostate, with RPMI-8226 leukemia, in the assay with RXF 393 renal and in the assay with SK-MEL-2 melanoma was more than 100 µM throughout.

`COc1ccc(/C=C(/C)[N+](=O)[O-])cc1OC`: the GI50 in the assay on HOP-62 NSCLC was 2.03 µM and 4.17 µM; in the assay on HT29 colon, 2.62 µM and 1.41 µM; with MCF7 breast, 1.23 µM and 1.09 µM; with NCI-H23 lung, 1.9 µM and 1.98 µM; with NCI-H460 lung, 2.78 µM and 3.14 µM; in the assay with NCI/ADR-RES ovarian, 2.97 µM and 3.25 µM. Also, the GI50 in the assay on PC-3 prostate is 2.65 µM and 2.78 µM; in the assay with RPMI-8226 leukemia, 0.971 µM and 1.6 µM; in the assay with RXF 393 renal, 1.7 µM and 1.42 µM; in the assay on SK-MEL-2 melanoma, 2.39 µM and 1.81 µM. Moreover, the TGI in the assay with HOP-62 NSCLC was 4.36 µM and 14.8 µM; with HT29 colon, 5.92 µM and 4.07 µM; with MCF7 breast, 3.26 µM and 2.57 µM; in the assay with NCI-H23 lung, 4.24 µM and 4.6 µM; in the assay on NCI-H460 lung it was 7.78 µM and 9.48 µM; in the assay on NCI/ADR-RES ovarian, 9.77 µM and 13.9 µM. For the same compound, the TGI in the assay with PC-3 prostate was 6.34 µM and 6.74 µM; with RPMI-8226 leukemia it was 3.43 µM and 5.18 µM; in the assay with RXF 393 renal it was 3.16 µM and 2.78 µM; with SK-MEL-2 melanoma it was 4.9 µM and 4 µM.

As to `O=C1C(OCCOc2ccccc2)=C(OCCOc2ccccc2)C(=O)c2ccccc21`, the GI50 in the assay on HOP-62 NSCLC is 9.26 µM; in the assay on HT29 colon, 9.95 µM; in the assay on MCF7 breast, 7.74 µM; in the assay with NCI-H23 lung, 1.82 µM; in the assay on NCI-H460 lung, 3.05 µM; in the assay on NCI/ADR-RES ovarian, 7.64 µM. Further, the GI50 in the assay on PC-3 prostate is 17.2 µM; in the assay with RPMI-8226 leukemia, more than 100 µM; in the assay on RXF 393 renal it was 40.2 µM; with SK-MEL-2 melanoma, 18.6 µM. The TGI in the assay on HOP-62 NSCLC is more than 100 µM; with HT29 colon it was more than 100 µM; in the assay with MCF7 breast, more than 100 µM; with NCI-H23 lung, 24.3 µM; with NCI-H460 lung it was 10.5 µM; in the assay with NCI/ADR-RES ovarian, more than 100 µM. Further, the TGI in the assay with PC-3 prostate, in the assay on RPMI-8226 leukemia, in the assay on RXF 393 renal and with SK-MEL-2 melanoma was more than 100 µM throughout.

`C=CCC1(C)CCCN(Cc2ccccc2)C1=O` (stereo not given): the TGI in the assay with HOP-62 NSCLC, in the assay with HT29 colon, in the assay on MCF7 breast, with NCI-H23 lung, in the assay on NCI-H460 lung and with NCI/ADR-RES ovarian was more than 10 µM throughout. Further, the TGI in the assay on PC-3 prostate, in the assay on RPMI-8226 leukemia, in the assay on RXF 393 renal and in the assay on SK-MEL-2 melanoma was more than 10 µM in each case.

In the case of `O=C(Nc1ccccc1OC(=O)c1ccccc1)c1ccccc1`, the GI50 was 18.8 µM in the assay on HOP-62 NSCLC; 3.76 µM in the assay on HT29 colon; 12.9 µM with MCF7 breast; 8.05 µM in the assay on NCI-H23 lung; 3.26 µM with NCI-H460 lung; 19.2 µM in the assay with NCI/ADR-RES ovarian. For the same compound, the GI50 was 6.11 µM in the assay with PC-3 prostate, 38.6 µM with RPMI-8226 leukemia, 50.9 µM with RXF 393 renal and 51.1 µM with SK-MEL-2 melanoma. In addition, the TGI with HOP-62 NSCLC was more than 100 µM; with HT29 colon, 41.4 µM; in the assay on MCF7 breast it was more than 100 µM; in the assay on NCI-H23 lung, more than 100 µM; in the assay on NCI-H460 lung, 15.2 µM; with NCI/ADR-RES ovarian, more than 100 µM. The TGI with PC-3 prostate, in the assay on RPMI-8226 leukemia, with RXF 393 renal and in the assay on SK-MEL-2 melanoma was more than 100 µM each time.

Take `Oc1c(-c2cc(C(F)(F)F)[nH]n2)cc(Cl)c(OCc2ccc(Cl)cc2)c1-c1ccc(Cl)c(C(F)(F)F)c1`: the GI50 is 0.766 µM in the assay on HOP-62 NSCLC; 1.4 µM with HT29 colon; 0.228 µM with MCF7 breast; 0.265 µM in the assay on NCI-H23 lung; 0.361 µM with NCI-H460 lung; 0.221 µM in the assay with NCI/ADR-RES ovarian. Also, the GI50 with PC-3 prostate is 0.171 µM; in the assay with RPMI-8226 leukemia it was 0.204 µM; in the assay with RXF 393 renal it was 0.226 µM; in the assay on SK-MEL-2 melanoma it was 0.36 µM. For the same compound, the TGI in the assay with HOP-62 NSCLC is 3.04 µM; in the assay with HT29 colon, 5.83 µM; in the assay on MCF7 breast, 5.39 µM; in the assay with NCI-H23 lung, 4.06 µM; in the assay on NCI-H460 lung it was 2.57 µM; in the assay on NCI/ADR-RES ovarian, 5.82 µM. For the same compound, the TGI in the assay on PC-3 prostate came out at 5.09 µM; with RPMI-8226 leukemia it was 1.19 µM; in the assay on RXF 393 renal, 1.67 µM; in the assay with SK-MEL-2 melanoma it was 2.35 µM.

As to `O=C(O)c1cc(CCc2cc(O)ccc2O)ccc1O`, the TGI in the assay with HOP-62 NSCLC, with HT29 colon, in the assay with MCF7 breast, in the assay with NCI-H23 lung, in the assay on NCI-H460 lung and with NCI/ADR-RES ovarian was more than 100 µM throughout. For the same compound, the TGI with PC-3 prostate, in the assay on RPMI-8226 leukemia, with RXF 393 renal and in the assay with SK-MEL-2 melanoma was more than 100 µM in each case.
